Measured values: patent publication US8530493B2, “Indolopyridines as Eg5 kinesin modulators” (4SC AG, priority 2006, dated 2013)

Columns and labels:
Type in all cases: cell-based
[1] = system: RKO p27 or p21 uninduced (proliferating) colon adenocarcinoma cells; experiment: Alamar Blue cell viability assay, RKO p27 or p21 uninduced (proliferating); conditions: Homo sapiens, RKOp27, 72 h, Table B2, anti-proliferative/cytotoxic activity, read-out: −log EC50 RKO p27 or p21 uninduced (proliferating) (converted)
Procedure: The anti-proliferative/cytotoxic activity of the compounds described herein can be tested on subclones of RKO human colon adenocarcinoma cells (Schmidt et al., Oncogene 19, 2423-2429; 2000) using the Alamar Blue cell viability assay (described in O'Brien et al. Eur J Biochem 267, 5421-5426, 2000). The compounds are dissolved as 10 mM solutions in DMSO and subsequently diluted in semi-logarithmic steps. DMSO dilutions are further diluted 1:100 into Dulbecco's modified Eagle's medium (DMEM) containing 10% fetal calf serum to a final concentration twice as much as the final concentration in the test. RKO subclones are seeded into 96 well flat bottom plates at a density of 4000 cells per well in a volume of 50 μl per well. 24 hours after seeding the 50 μl each of the compound dilutions in DMEM medium are added into each well of the 96 well plate. Each compound dilution is tested as triplicates. Wells containing untreated control cells are filled with 50 μl DMEM medium containing 1% DMSO. The cells are then incubated with the substances for 72 hours at 37° C. in a humidified atmosphere containing 5% carbon dioxide. To determine the viability of the cells, 10 μl of an Alamar Blue solution (Biosource) are added and the fluorescence is measured at an extinction of 544 nm and an emission of 590 nm. For the calculation of the cell viability the emission value from untreated cells is set as 100% viability and the emission rates of treated cells are set in relation to the values of untreated cells. Viabilities are expressed as % values. The Graphpad Prism program is used for the calculation of EC50 values for anti-proliferative/cytotoxic activity out of the obtained dose-response curves.
(§1) To determine the cell cycle specific mode of action, subclones of RKO colon adenocarcinoma cells (RKOp21 or RKOp27 as described by Schmidt et al. in Oncogene 19, 2423-2429; 2000) are seeded into 96 well flat bottom plates at a density of 16000 cells per well in a volume of 50 μl per well in DMEM growth medium with 10% FCS containing 10 μM Ponasterone A. 24 hours after seeding the 50 μl each of the compound dilutions in DMEM medium are added into each well of the 96-well plate. Each compound dilution is tested as triplicates. Wells containing untreated control cells are filled with 50 μl DMEM medium containing 1% DMSO. The cells are then incubated with the substances for 72 hours at 37° C. in a humidified atmosphere containing 5% carbon dioxide. To determine the viability of the cells, 10 μl of an Alamar Blue solution (Biosource) are added and the fluorescence is measured at an extinction of 544 nm and an emission of 590 nm. For the calculation of the cell viability the emission value from untreated cells is set as 100% viability and the emission rates of treated cells are set in relation to the values of untreated cells. Viabilities are expressed as % values. The Graphpad Prism program (GraphPad Software, Inc) is used for the calculation of EC50 values out of the obtained dose-response curves. Viability is compared of proliferating cells grown in the absence of the inducer Ponasterone A, versus viability of cells arrested by the expression of ectopic p27Kip1 induced by Ponasterone A.
(§2) Representative values for anti-proliferation/cytotoxicity [measured as −log EC50 (mol/l)] determined in the aforementioned assays follow from the following tables B1, B2 and B3, in which the numbers of the compounds correspond to the numbers of the examples.

[2] = system: RKO p27 or p21 induced (arrested) colon adenocarcinoma cells; experiment: Alamar Blue cell viability assay, RKO p27 or p21 induced (arrested); conditions: Homo sapiens, RKOp27, Table B2, cells arrested by Ponasterone A, 72 hours, read-out: −log EC50 RKO p27 or p21 induced (arrested) (converted)
Procedure: as §1, §2

[3] = system: RKO p21 uninduced (proliferating) colon adenocarcinoma cells; experiment: Alamar Blue cell viability assay, RKO p21 uninduced (proliferating); conditions: Homo sapiens, Table B3, anti-proliferative/cytotoxic activity, 72 hours, read-out: −log EC50 RKO p21 uninduced (proliferating) (converted)
Procedure, shortened: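 RKO p21 or p27 subclones grown without Ponasterone A, i.e. proliferating, exposed 24 h after seeding to semi-log compound dilutions in DMEM/10% FCS (1% DMSO controls) for 72 h at 37° C. Alamar Blue fluorescence (544/590 nm) read relative to untreated cells; EC50 from dose-response curves, given as −log EC50 (mol/l).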

**Q.** How did the EC50 [1] turn out when `COc1ccc2[nH]c3c(c2c1)C[C@@]1(C)C(=O)N(CCN2CCCCCC2)C(=O)N1[C@@H]3c1cccc(O)c1` (racemic) [Example 74, (3aSR,10RS)-2-(2-Azepan-1-yl-ethyl)-10-(3-hydroxy-phenyl)-6-methoxy-3a-methyl-3a,4,9,10-tetrahydro-2,9,10a-triaza-cyclopenta[b]fluorene-1,3-dione] was run?
**A.** The EC50 was at most 39.8 nM.

**Q.** And the EC50 [2]?
**A.** The EC50 was at least 3160 nM.

**Q.** Which results are given for `COc1ccc2[nH]c3c(c2c1)C[C@@]1(C)C(=O)N(CCCCl)C(=O)N1[C@@H]3c1cccc(O)c1` (racemic) [Example 55, (3aSR,10RS)-2-(3-Chloro-propyl)-10-(3-hydroxy-phenyl)-6-methoxy-3a-methyl-3a,4,9,10-tetrahydro-2,9,10a-triaza-cyclopenta[b]fluorene-1,3-dione]?
**A.** EC50 [1]: 39.8 to 251 nM; EC50 [2]: ≥ 316 nM

**Q.** For `CC(C)CNCCN1C(=O)N2[C@H](c3cccc(O)c3)c3[nH]c4ccc(Cl)cc4c3C[C@@]2(C)C1=O` (racemic) [Example 99, (3aSR,10RS)-6-Chloro-10-(3-hydroxy-phenyl)-2-(2-isobutylamino-ethyl)-3a-methyl-3a,4,9,10-tetrahydro-2,9,10a-triaza-cyclopenta[b]fluorene-1,3-dione], which EC50 [1] is on record?
**A.** The EC50 was at most 39.8 nM.

**Q.** And the EC50 [2]?
**A.** Its EC50 is at least 3160 nM.

**Q.** How did the EC50 [1] turn out when `COc1ccc2[nH]c3c(c2c1)C[C@@]1(C)C(=O)N(CCNC(C)(C)C)C(=O)N1[C@@H]3c1cccc(O)c1` (racemic) [Example 72, (3aSR,10RS)-2-(2-tert-Butylamino-ethyl)-10-(3-hydroxy-phenyl)-6-methoxy-3a-methyl-3a,4,9,10-tetrahydro-2,9,10a-triaza-cyclopenta[b]fluorene-1,3-dione] was run?
**A.** Its EC50 is at most 39.8 nM.

**Q.** What about the EC50 [2] of the same compound?
**A.** Its EC50 is at least 3160 nM.

**Q.** Which results are given for `C#CCNCCCN1C(=O)N2[C@H](c3cccc(O)c3)c3[nH]c4ccc(OC)cc4c3C[C@@]2(C)C1=O` (racemic) [Example 147, (3aSR,10RS)-10-(3-Hydroxy-phenyl)-6-methoxy-3a-methyl-2-(3-prop-2-ynylamino-propyl)-3a,4,9,10-tetrahydro-2,9,10a-triaza-cyclopenta[b]fluorene-1,3-dione]?
**A.** EC50 [1]: ≤ 39.8 nM; EC50 [2]: ≥ 316 nM

**Q.** What does the source list for `C=CCNCCCN1C(=O)N2[C@H](c3cccc(O)c3)c3[nH]c4ccc(OC)cc4c3C[C@@]2(C)C1=O` (racemic) [Example 146, (3aSR,10RS)-2-(3-Allylamino-propyl)-10-(3-hydroxy-phenyl)-6-methoxy-3a-methyl-3a,4,9,10-tetrahydro-2,9,10a-triaza-cyclopenta[b]fluorene-1,3-dione]?
**A.** EC50 [1]: ≤ 39.8 nM; EC50 [2]: ≥ 316 nM

**Q.** With `CCN(CC)CCCN1C(=O)N2[C@H](c3cccc(O)c3)c3[nH]c4ccc(Cl)cc4c3C[C@@]2(C)C1=O` (racemic) [Example 137, (3aSR,10RS)-6-Chloro-2-(3-diethylamino-propyl)-10-(3-hydroxy-phenyl)-3a-methyl-3a,4,9,10-tetrahydro-2,9,10a-triaza-cyclopenta[b]fluorene-1,3-dione] as the compound, how does the EC50 [1] read?
**A.** Its EC50 is at most 39.8 nM.

**Q.** What about the EC50 [2] of the same compound?
**A.** Its EC50 is at least 3160 nM.

**Q.** Which EC50 [1] does the source give for `COc1ccc2[nH]c3c(c2c1)C[C@@]1(C)C(=O)N(CCCNC2CCC2)C(=O)N1[C@@H]3c1cccc(O)c1` (racemic) [Example 86, (3aSR,10RS)-2-(3-Cyclobutylamino-propyl)-10-(3-hydroxy-phenyl)-6-methoxy-3a-methyl-3a,4,9,10-tetrahydro-2,9,10a-triaza-cyclopenta[b]fluorene-1,3-dione] here?
**A.** The EC50 was at most 39.8 nM.

**Q.** What about the EC50 [2] of the same compound?
**A.** The EC50 was at least 3160 nM.

**Q.** How did the EC50 [1] turn out when `C#CCN(C)CCN1C(=O)N2[C@H](c3cccc(O)c3)c3[nH]c4ccc(OC)cc4c3C[C@@]2(C)C1=O` (racemic) [Example 81, (3aSR,10RS)-10-(3-Hydroxy-phenyl)-6-methoxy-3a-methyl-2-[2-(methyl-prop-2-ynyl-amino)-ethyl]-3a,4,9,10-tetrahydro-2,9,10a-triaza-cyclopenta[b]fluorene-1,3-dione] was run?
**A.** Its EC50 is at most 39.8 nM.

**Q.** And the EC50 [2]?
**A.** The EC50 was at least 3160 nM.

**Q.** For `COc1ccc2[nH]c3c(c2c1)C[C@@]1(C)C(=O)N(CCCN2CCOCC2)C(=O)N1[C@@H]3c1cccc(O)c1` (racemic) [Example 148, (3aSR,10RS)-10-(3-Hydroxy-phenyl)-6-methoxy-3a-methyl-2-(3-morpholin-4-yl-propyl)-3a,4,9,10-tetrahydro-2,9,10a-triaza-cyclopenta[b]fluorene-1,3-dione], which EC50 [1] is on record?
**A.** The EC50 was at most 39.8 nM.

**Q.** What about the EC50 [2] of the same compound?
**A.** Its EC50 is at least 316 nM.

**Q.** Which results are given for `C[C@@]12Cc3c([nH]c4ccc(Cl)cc34)[C@@H](c3cccc(O)c3)N1C(=O)N(CCN1CCC(F)(F)C1)C2=O` (racemic) [Example 129, (3aSR,10RS)-6-Chloro-2-[2-(3,3-difluoro-pyrrolidin-1-yl)-ethyl]-10-(3-hydroxy-phenyl)-3a-methyl-3a,4,9,10-tetrahydro-2,9,10a-triaza-cyclopenta[b]fluorene-1,3-dione]?
**A.** EC50 [1]: 39.8 to 251 nM; EC50 [2]: ≥ 316 nM

**Q.** With `C[C@@]12Cc3c([nH]c4ccc(Cl)cc34)[C@@H](c3cccc(O)c3)N1C(=O)N(CCN1CCCCCC1)C2=O` (racemic) [Example 104, (3aSR,10RS)-2-(2-Azepan-1-yl-ethyl)-6-chloro-10-(3-hydroxy-phenyl)-3a-methyl-3a,4,9,10-tetrahydro-2,9,10a-triaza-cyclopenta[b]fluorene-1,3-dione] as the compound, how does the EC50 [1] read?
**A.** Its EC50 is at most 39.8 nM.

**Q.** And the EC50 [2]?
**A.** Its EC50 is at least 3160 nM.

**Q.** How did the EC50 [1] turn out when `C[C@@]12Cc3c([nH]c4ccc(Cl)cc34)[C@@H](c3cccc(O)c3)N1C(=O)N(CCN1CC=CC1)C2=O` (racemic) [Example 109, (3aSR,10RS)-6-Chloro-2-[2-(2,5-dihydro-pyrrol-1-yl)-ethyl]-10-(3-hydroxy-phenyl)-3a-methyl-3a,4,9,10-tetrahydro-2,9,10a-triaza-cyclopenta[b]fluorene-1,3-dione] was run?
**A.** The EC50 was at most 39.8 nM.

**Q.** What about the EC50 [2] of the same compound?
**A.** The EC50 was at least 316 nM.

**Q.** `COc1ccc2[nH]c3c(c2c1)C[C@@]1(C)C(=O)N(CCCNC2CC2)C(=O)N1[C@@H]3c1cccc(O)c1` (racemic) [Example 93, (3aSR,10RS)-2-(3-Cyclopropylamino-propyl)-10-(3-hydroxy-phenyl)-6-methoxy-3a-methyl-3a,4,9,10-tetrahydro-2,9,10a-triaza-cyclopenta[b]fluorene-1,3-dione] was tested. Which EC50 [1] did it give?
**A.** Its EC50 is at most 39.8 nM.

**Q.** And the EC50 [2]?
**A.** Its EC50 is at least 3160 nM.

**Q.** `C#CCNCCN1C(=O)N2[C@H](c3cccc(O)c3)c3[nH]c4ccc(OC)cc4c3C[C@@]2(C)C1=O` (racemic) [Example 85, (3aSR,10RS)-10-(3-Hydroxy-phenyl)-6-methoxy-3a-methyl-2-(2-prop-2-ynylamino-ethyl)-3a,4,9,10-tetrahydro-2,9,10a-triaza-cyclopenta[b]fluorene-1,3-dione] was tested. Which EC50 [1] did it give?
**A.** Its EC50 is 39.8 to 251 nM.

**Q.** And the EC50 [2]?
**A.** Its EC50 is at least 3160 nM.

**Q.** Which EC50 [1] does the source give for `CC(C)N(C)CCCN1C(=O)N2[C@H](c3cccc(O)c3)c3[nH]c4ccc(Cl)cc4c3C[C@@]2(C)C1=O` (racemic) [Example 133, (3aSR,10RS)-6-Chloro-10-(3-hydroxy-phenyl)-2-[3-(isopropyl-methyl-amino)-propyl]-3a-methyl-3a,4,9,10-tetrahydro-2,9,10a-triaza-cyclopenta[b]fluorene-1,3-dione] here?
**A.** The EC50 was at most 39.8 nM.

**Q.** What about the EC50 [2] of the same compound?
**A.** The EC50 was at least 316 nM.

**Q.** For `CCN(CCO)CCCN1C(=O)N2[C@H](c3cccc(O)c3)c3[nH]c4cc(F)c(OC)cc4c3C[C@@]2(C)C1=O` (racemic) [Example 315, (3aSR,10RS)-2-{3-[Ethyl-(2-hydroxy-ethyl)-amino]-propyl}-7-fluoro-10-(3-hydroxy-phenyl)-6-methoxy-3a-methyl-3a,4,9,10-tetrahydro-2,9,10a-triaza-cyclopenta[b]fluorene-1,3-dione], which EC50 [3] is on record?
**A.** The EC50 was 39.8 to 251 nM.
